Measurements taken from ChEMBL document CHEMBL3352560, “Optimization of drug-like properties of nonsteroidal glucocorticoid mimetics and identification of a clinical candidate” (ACS Med Chem Lett, 2014).
Converted amounts (≈) assume the structure as drawn.

How the values were obtained:
physchem = conditions: buffer, pH 6.8
[1] = buffer, pH 6.8, 24 h
in vivo = conditions: rat

solubility thermodynamic at 24 h (physchem)	Therm_solubility [1]	half-life (in vivo)	Structure (SMILES)
47 µg/mL (≈ 89.4 µM)	–	–	CC(C)(CC(O)(Cc1cc2cc(N3CCOCC3)ncc2[nH]1)C(F)(F)F)c1cccc(S(C)(=O)=O)c1 (stereo not drawn)
–	5 µg/mL	252 min	CCS(=O)(=O)c1cc2cc(C[C@](O)(CC(C)(C)c3ccc(F)cc3C(N)=O)C(F)(F)F)[nH]c2cn1 [BI 653048]
